Measured values reported in patent publication US4254285A, “1-Hydroxymethyl-1-1-oxo prostane derivatives of the E and F series” (American Cyanamid Company, priority 1979, dated 1981).
Like-named read-outs stand apart in the source and are kept apart here.

Experiments:
[1] = tested on: indomethacin-induced intestinal ulcers; format: in vivo, rat
Procedure: (§1) Male Wistar rats (Royal Hart, New Hampton, N.Y.), weighing 190-210 g are distributed among control and treatment groups (5 rats/group) and housed one rat per cage. During the 52 hour test period, the rats are permitted free access to food and drinking water for the first 33 hours but are fasted overnight prior to sacrifice. Indomethacin is suspended (4 mg/ml) in a 1.5% starch-phosphate buffer solution (SPBS). 1,9-dioxo-11α,16-dihydroxy-16-methyl-1-hydroxymethyl-13-transprostene is dissolved at 10 mg/ml in ethanol and then diluted in SPBS to 0.1 mg/ml or to a lower concentration as required. The indomethacin suspension is injected subcutaneously (10 mg/kg) and the prostaglandin suspension is given by gavage (0.5 mg/kg or less) b.i.d. on day 0 and 1. Rats receive only one dose of prostaglandin and indomethacin on day 2 and 6 hours later are killed with chloroform. The stomachs are dissected, opened along the greater curvature, and rinsed briefly in tap water. They are then spread, mucosal surface facing upward and pinned onto uniform size corks (2.5 inch diameter) individually numbered on the back. The identification number for each stomach is unknown to the investigator and the stomachs are randomly graded according to the following scheme:
Intestines are also removed and examined for the presence of ulcers, which are graded according to the scheme outlined below.
1--Mucosa thin, petechial hemorrhage
2--"Blow-outs", when intestine inflated with air
3--Few ulcers. Gut more fragile than normal, tears along line of mesentery attachements when removed
4--Many large perforating lesions. Adhesions. Gut hemorrhagic and very fragile. Tears readily and cannot be removed intact. Graded in situ.
(§2) ^a Treatment is B.I.D. on days 0 and 1, and once on day 2, six hours
(§3) prior to sacrifice for scoring.

[2] = tested on: indomethacin-induced gastric ulcers; format: in vivo, rat
Procedure: as §1
1--Petechial hemorrhage, or pin-point ulcers
2--One or two small ulcers or hemorrhagic erosions
3--Many areas of hemorrhage erosion or ulcers, a few large
4--Massive areas of hemorrhagic erosion or many ulcers, mainly large
as §2, §3

[3] = format: in vivo, rat
Procedure: as §1, §2, §3

[4] = tested on: gastric secretion; experiment: Gastric anti-secretory test, Heidenhain pouch, histamine-stimulated; format: in vivo, dog; settings: oral 100 mg/Kg
Procedure: Unanesthetized mongrel dogs weighing 10-15 Kg are used. The animals have a surgically prepared denervated (Heidenhain) pouch which drains by gravity through a titanium cannula. These animals are trained to stand quietly in a Pavlov support. Gastric secretion is stimulated at the lowest rate giving stable secretion (25-40% of maximal) with histamine acid phosphate, 30-50 μg/Kg/hr. Under such stimulation, a stable gastric secretory output can generally be maintained for a period of at least 3 hours.
Gastric juice is collected continuously during secretory studies and pooled into 15-minute collections. Determination of collection volume, pH and titratable acidity is performed. Acid is determined by titrating an aliquot of gastric sample with 0.1 N NaOH to pH 7.0 using an automatic titrator.
Drugs are administered on a background of submaximal gastric secretory stimulation and the results compared with control secretory studies without the use of drug. Depending upon the duration of action of a particular drug, it may be possible for a single drug-secretory study to serve as its own control. The route of drug administration is oral administration into the main stomach.
For example, one of the PGE compounds of this invention 1,9-dioxo-11α,16-dihydroxy-16-methyl-1-hydroxymethyl-5-trans prostadiene on administration into the stomach of one of these dogs at a dose of […] gives the results shown hereinbelow in Table D. The data in Table D is the average of four tests in one dog.

[5] = .02 mg/kg P.O. with indomethacin 10 mg/kg subcut.
[6] = .1 mg/kg P.O. with indomethacin 10 mg/kg subcut.
[7] = .5 mg/kg P.O. with indomethacin 10 mg/kg subcut.
[8] = 0 min., average of four tests in one dog

SMILES: CCCCC(C)(O)CC=CC1C(O)CC(=O)C1CCCCCCC(=O)CO (stereo not drawn)
- Intestinal Ulcer Score (Mean ± S.E.M.) [1, 5]: 3.5 ± 0.2
- Intestinal Ulcer Score (Mean ± S.E.M.) [1, 6]: 2.7 ± 0.2
- Intestinal Ulcer Score (Mean ± S.E.M.) [1, 7]: 2.0 ± 0.4
- Gastric Ulcer Score (Mean ± S.E.M.) [2, 5]: 1.9 ± 0.4
- Gastric Ulcer Score (Mean ± S.E.M.) [2, 6]: 1.7 ± 0.3
- Gastric Ulcer Score (Mean ± S.E.M.) [2, 7]: 2.1 ± 0.4
- Hematocrit (Mean ± S.E.M.) [3, 5]: 35.6 ± 1.9
- Hematocrit (Mean ± S.E.M.) [3, 6]: 41.1 ± 2.4
- Hematocrit (Mean ± S.E.M.) [3, 7]: 40.0 ± 1.4

SMILES: CCCCC(C)(O)CC=CC1C(O)CC(=O)C1CC=CCCCC(=O)CO (stereo not drawn) [1,9-dioxo-11α,16-dihydroxy-16-methyl-1-hydroxymethyl-5-cis-13-trans-prostadiene]
- Acid [4, 8]: 0.43 meg/15 min.
- Volume of gastric juice [4, 8]: 3.4 mL
- Acid ([4]; 15 min.): 0.35 meg/15 min.
- Volume of gastric juice ([4]; 15 min.): 2.6 mL
- Acid ([4]; 30 min.): 0.22 meg/15 min.
- Volume of gastric juice ([4]; 30 min.): 1.5 mL
- Acid ([4]; 45 min.): 0.20 meg/15 min.
- Volume of gastric juice ([4]; 45 min.): 1.3 mL
- Acid ([4]; 60 min.): 0.09 meg/15 min.
- Volume of gastric juice ([4]; 60 min.): 0.7 mL
- Acid ([4]; 75 min.): 0.13 meg/15 min.
- Volume of gastric juice ([4]; 75 min.): 0.9 mL
- Acid ([4]; 90 min.): 0.21 meg/15 min.
- Volume of gastric juice ([4]; 90 min.): 1.5 mL
- Acid ([4]; 105 min.): 0.27 meg/15 min.
- Volume of gastric juice ([4]; 105 min.): 1.9 mL
- Acid ([4]; 120 min.): 0.40 meg/15 min.
- Volume of gastric juice ([4]; 120 min.): 2.7 mL
